Paper PMC6407576, “Synthesis and evaluation of anticancer, antiphospholipases, antiproteases, and antimetabolic syndrome activities of some 3H-quinazolin-4-one derivatives” (Journal of Enzyme Inhibition and Medicinal Chemistry, 2019)

How the values were obtained:
[1] = target: T1, human group V (hG-V) sPLA2 (Homo sapiens, UniProt P39877); assay: In vitro antiphospholipase activity; assay type: biochemical; conditions: 20 min preincubation, lecithin substrate, pH 7.6; read-out: mean IC50 against hG-V (converted)
T1 sequence (P39877 21-138): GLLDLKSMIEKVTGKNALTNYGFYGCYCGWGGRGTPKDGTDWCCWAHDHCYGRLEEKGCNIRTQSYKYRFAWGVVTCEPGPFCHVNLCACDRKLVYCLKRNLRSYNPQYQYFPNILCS

[2] = target: T2, human group X (hG-X) sPLA2 (Homo sapiens, UniProt O15496); assay: In vitro antiphospholipase activity; assay type: biochemical; conditions: 20 min preincubation, lecithin substrate, pH 7.6; read-out: mean IC50 against hG-X (converted)
T2 sequence (O15496 43-165): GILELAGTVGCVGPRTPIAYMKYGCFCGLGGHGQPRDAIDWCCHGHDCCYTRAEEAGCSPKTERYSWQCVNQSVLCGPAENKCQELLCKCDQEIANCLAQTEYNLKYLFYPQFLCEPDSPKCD

xanthine oxidase = xanthine oxidase (Homo sapiens, UniProt P47989); assay: In vitro inhibition of xanthine oxidase; assay type: biochemical
Description: The xanthine oxidase inhibitory activities of the examined chemical compounds were determined by following the formation of uric acid from xanthine according to the reported method by Bondet and co-workers[46]. […] The results were expressed as IC50 determined from the curve.

[3] = target: T3, human group IIA (hG-IIA) sPLA2 (Homo sapiens, UniProt P14555); assay: In vitro antiphospholipase activity; assay type: biochemical
T3 sequence (P14555 21-144): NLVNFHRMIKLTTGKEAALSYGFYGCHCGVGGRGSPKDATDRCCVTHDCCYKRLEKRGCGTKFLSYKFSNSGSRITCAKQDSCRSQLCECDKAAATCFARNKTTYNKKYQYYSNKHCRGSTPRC

[4] = target: Naja mossambica mossambica sPLA2 (NmPLA2); assay: In vitro antiphospholipase activity; assay type: biochemical; conditions: 20 min preincubation, lecithin substrate, pH 7.6
[5] = target: Apis mellifera bee venom (AmPLA2) (Apis mellifera, UniProt P00630); assay: biochemical
trypsin = target: T4, trypsin (Bos taurus, UniProt P00760); assay: In vitro antiprotease activity; assay type: biochemical; conditions: 15 min preincubation; read-out: mean IC50 against Trypsin (converted)
T4 construct: gene PRSS1
T4 sequence (P00760 24-246): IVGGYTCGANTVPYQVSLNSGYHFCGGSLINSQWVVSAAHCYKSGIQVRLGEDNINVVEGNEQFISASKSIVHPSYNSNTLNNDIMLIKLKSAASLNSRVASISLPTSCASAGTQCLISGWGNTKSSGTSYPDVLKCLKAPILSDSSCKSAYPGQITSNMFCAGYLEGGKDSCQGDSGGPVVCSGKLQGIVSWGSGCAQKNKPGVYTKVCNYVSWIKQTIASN
Description: (§1) The inhibitory effects of 21 3H-quinazolin-4-one derivatives on several available therapeutically important proteases such as cathepsin-B, collagenase, elastase, thrombin, and trypsin were investigated. […] The protease inhibitory activity was expressed as inhibition percentage, which was determined by comparison with a control experiment. The results were expressed as IC50 values that were determined from the standard curve. A protease inhibitor cocktail (Sigma) was used as the positive control.

collagenase = assay: In vitro antiprotease activity; assay type: biochemical; conditions: 15 min preincubation
Description: as §1

elastase = assay: In vitro antiprotease activity; assay type: biochemical; conditions: 15 min preincubation
Description: as §1

thrombin = thrombin (Homo sapiens, UniProt P00734); assay: In vitro antiprotease activity; assay type: biochemical; conditions: 15 min preincubation; read-out: mean IC50 against Thrombin (converted)
Description: as §1

cathepsin-B = cathepsin-B (Homo sapiens, UniProt P07858); assay: In vitro antiprotease activity; assay type: biochemical; conditions: 15 min preincubation; read-out: mean IC50 against Cathepsin-B (converted)
Description: as §1

SW620 cells = assay: MTT cell viability assay; assay type: cell-based, Human; conditions: Homo sapiens, SW-620, 24 h, read-out: cell viability
Description: (§2) Human CRC cell lines, HT-29 and SW620 cells were grown in RPMI (Invitrogen) containing 10% heat-inactivated foetal bovine serum, 100 µg/ml streptomycin, 100 units/ml penicillin and 2 mmol/l L-glutamine.
(§3) Cell viability was determined using the 3-(4, 5-dimethylthiazolyl-2)–2, 5-diphenyltetrazolium bromide) MTT assay according to Mosmann[40]. 5-Fluorouracil (5-FU) was used as positive control. Briefly, after culturing cells in 96 well plates for 24 h, they were treated with different compounds (30 μg/ml) for 24 h. Freshly prepared MTT (5 mM) solutions were added to the cells and were further incubated for 2 h at 37 °C in 5% CO2. One hundred microliters of dimethyl sulphoxide (DMSO) was added in each well to dissolve the formazan crystal, formed in the reaction during incubation by careful pipetting. The absorbance of the product was measured at 540 nm using a microplate reader. The experiments were performed in triplicate for each condition. The graph illustrates the mean and standard deviation (SD) values of three independent experiments.

HT-29 cells = assay: MTT cell viability assay; assay type: cell-based, Human; conditions: Homo sapiens, HT-29, 24 h, read-out: cell viability
Description: as §2, §3

Sequence of Apis mellifera bee venom (AmPLA2) (P00630 34-167 limits assumed): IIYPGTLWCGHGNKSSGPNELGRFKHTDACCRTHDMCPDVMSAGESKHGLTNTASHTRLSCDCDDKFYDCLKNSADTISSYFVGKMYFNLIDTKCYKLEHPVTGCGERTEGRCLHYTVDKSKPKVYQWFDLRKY
Sequence of xanthine oxidase (P47989 whole entry, species assumed): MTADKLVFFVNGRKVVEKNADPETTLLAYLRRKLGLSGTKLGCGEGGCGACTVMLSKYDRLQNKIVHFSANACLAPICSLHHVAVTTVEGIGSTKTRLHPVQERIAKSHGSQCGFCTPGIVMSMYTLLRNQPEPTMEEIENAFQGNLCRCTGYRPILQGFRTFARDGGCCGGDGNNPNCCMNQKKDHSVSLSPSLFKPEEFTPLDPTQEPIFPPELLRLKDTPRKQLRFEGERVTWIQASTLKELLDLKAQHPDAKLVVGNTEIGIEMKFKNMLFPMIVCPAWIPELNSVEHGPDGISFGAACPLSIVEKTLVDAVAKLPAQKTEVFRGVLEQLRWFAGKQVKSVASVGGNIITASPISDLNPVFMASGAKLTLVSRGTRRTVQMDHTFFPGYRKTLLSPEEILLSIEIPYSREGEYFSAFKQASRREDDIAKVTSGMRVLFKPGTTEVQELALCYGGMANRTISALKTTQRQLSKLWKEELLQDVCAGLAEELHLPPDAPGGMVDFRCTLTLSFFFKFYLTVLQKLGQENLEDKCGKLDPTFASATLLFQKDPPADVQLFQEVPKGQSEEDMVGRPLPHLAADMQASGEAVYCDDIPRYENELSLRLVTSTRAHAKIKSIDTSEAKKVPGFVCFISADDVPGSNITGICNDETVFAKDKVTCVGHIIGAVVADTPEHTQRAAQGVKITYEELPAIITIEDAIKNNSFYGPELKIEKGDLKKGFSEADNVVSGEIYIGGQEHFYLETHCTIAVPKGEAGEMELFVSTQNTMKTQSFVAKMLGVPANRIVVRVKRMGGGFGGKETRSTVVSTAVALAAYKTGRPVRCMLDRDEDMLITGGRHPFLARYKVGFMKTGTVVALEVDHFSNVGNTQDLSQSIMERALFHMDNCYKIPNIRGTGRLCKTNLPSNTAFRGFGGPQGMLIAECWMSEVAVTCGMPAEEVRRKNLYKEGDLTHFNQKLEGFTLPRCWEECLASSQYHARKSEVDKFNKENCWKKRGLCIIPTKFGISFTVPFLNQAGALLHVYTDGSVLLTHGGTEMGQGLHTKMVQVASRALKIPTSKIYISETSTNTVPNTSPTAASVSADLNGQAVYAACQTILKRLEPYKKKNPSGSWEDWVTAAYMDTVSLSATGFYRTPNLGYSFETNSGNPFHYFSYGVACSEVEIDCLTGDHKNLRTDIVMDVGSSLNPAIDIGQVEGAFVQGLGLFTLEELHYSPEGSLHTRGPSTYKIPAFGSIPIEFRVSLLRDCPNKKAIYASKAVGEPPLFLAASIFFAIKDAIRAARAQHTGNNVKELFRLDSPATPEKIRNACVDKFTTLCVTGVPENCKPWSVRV

SMILES | IC50 [1] | IC50 [2] | IC50 (xanthine oxidase) | IC50 [3] | melting point | mean IC50 against NmPLA2 [4] | IC50 [5] | IC50 (trypsin) | mean IC50 against Collagenase (collagenase) | mean IC50 against Elastase (elastase) | IC50 (thrombin) | IC50 (cathepsin-B) | viability at 30 µg/mL (SW620 cells) | viability at 30 µg/mL (HT-29 cells)
Cc1nc2ccccc2c(=O)n1NC(=O)OCC(C)C [Compound 10, (2-methyl-4-oxo-4H-quinazolin-3-yl)-carbamic acid isobutyl ester] | 62.7 µM | 34.5 µM | 109 µM | 56.3 µM | 168 to 170 °C | 13.45 ± 0.78 µg/mL | 16.3 µM | 4 µM | 28.00 ± 1.41 µg/mL | 1.45 ± 0.21 µg/mL | 8.54 µM | 81.7 µM |  | 
COc1cc(-n2c(C)nc3ccc(F)cc3c2=O)cc(OC)c1OC [Compound 5b, 6 -Fluoro-2-methyl-3–(3,4,5-trimethoxy-phenyl)-3H-quinazolin-4-one] | 36.3 µM | 24.7 µM | 15.7 µM | 60.3 µM | 193 to 195 °C | 4.15 ± 0.50 µg/mL | 14.8 µM | 3.19 µM | 18.00 ± 1.41 µg/mL | 0.70 ± 0.01 µg/mL | 2.61 µM | 31.9 µM | 46.6% | 
Cc1nc2ccccc2c(=O)n1/N=C/N(C)C [Compound 12, (E)-N,N-dimethyl-N′-(2-methyl-4-oxo-4H-quinazolin-3-yl)-formamidine] | 150 µM | 141 µM | 91.2 µM | 200 µM | 100 to 102 °C | 35.00 ± 2.83 µg/mL | 122 µM | 56.5 µM | 35.50 ± 2.12 µg/mL | 8.50 ± 2.12 µg/mL | 23.9 µM | 119 µM |  | 
O=c1[nH]cc(F)c(=O)[nH]1 [Compound 5-FU, 5-Fluorouracil, reference compound] |  |  |  |  |  |  |  |  |  |  |  |  | 42.7% | 65.9%
Cc1nc2ccc(Br)cc2c(=O)n1/N=C/c1ccc(-c2ccccn2)cc1 [Compound 8d, (E)-6-Bromo-2-methyl-3-[(4-pyridin-2-yl-benzylidene)-amino]-3H-quinazolin-4-one] | 22.3 µM | 15.7 µM | 23.9 µM | 13.7 µM | 209 to 210 °C | 6.55 ± 0.78 µg/mL | 10.5 µM | 54.9 µM | 3.00 ± 0.01 µg/mL | 26.00 ± 1.41 µg/mL | 37 µM | 82.3 µM |  | 
Cc1cccc(C)c1NC(=O)CSc1nc2ccccc2c(=O)n1-c1ccccc1 [Compound 15c, N-(2,6-Dimethyl-phenyl)-2-(4-oxo-3-phenyl-3,4-dihydro-quinazolin-2-ylsulfanyl)-acetamide] | 56.6 µM | 102 µM | 148 µM | 96.3 µM | 218 to 220 °C | 28.50 ± 2.12 µg/mL | 52.9 µM | 37.3 µM | 18.00 ± 1.41 µg/mL | 18.50 ± 0.71 µg/mL | 42.1 µM | 26.5 µM |  | 47.5%
COc1cc(-n2c(C)nc3ccc(Cl)cc3c2=O)cc(OC)c1OC [Compound 5c, 6 -Chloro-2-methyl-3–(3,4,5-trimethoxy-phenyl)-3H-quinazolin-4-one] | 38.1 µM | 26.3 µM | 36 µM | 57.5 µM | 188 to 190 °C | 5.15 ± 0.92 µg/mL | 12.6 µM | 6.24 µM | 21.50 ± 2.12 µg/mL | 1.75 ± 0.05 µg/mL | 6.93 µM | 34.6 µM |  | 
Cc1nc2ccc(Br)cc2c(=O)n1/N=C/c1ccc(C#N)cc1 [Compound 8h, (E)-4-[(6-Bromo-2-methyl-4-oxo-4H-quinazolin-3-ylimino)-methyl]-benzonitrile] | 92.6 µM | 112 µM | 154 µM | 120 µM | 228 to 230 °C | 22.90 ± 1.27 µg/mL | 79 µM | 91.2 µM | 14.50 ± 2.12 µg/mL | 27.50 ± 2.12 µg/mL | 66.7 µM | 10.9 µM |  | 
Cc1ccc2nc(SCC(=O)Nc3cccc(C)c3C)n(-c3ccccc3)c(=O)c2c1 [Compound 15f, N-(2,3-Dimethyl-phenyl)-2-(6-methyl-4-oxo-3-phenyl-3,4-dihydro-quinazolin-2-ylsulfanyl) -acetamide] | 70.1 µM | 51.2 µM | 136 µM | 90.8 µM | 218 to 220 °C | 33.00 ± 2.83 µg/mL | 86.7 µM | 39.6 µM | 10.50 ± 2.12 µg/mL | 16.00 ± 1.41 µg/mL | 40.7 µM | 9.31 µM |  | 
Cc1nc2ccccc2c(=O)n1/N=C/c1ccc(-c2ccccn2)cc1 [Compound 8c, (E)-2-Methyl-3-[(4-pyridin-2-yl-benzylidene)-amino]-3H-quinazolin-4-one] | 30.8 µM | 69.8 µM | 11.8 µM | 22.2 µM | 188 to 190 °C | 7.60 ± 0.85 µg/mL | 16.5 µM | 103 µM | 23.50 ± 0.71 µg/mL | 32.00 ± 2.83 µg/mL | 69 µM | 36.7 µM |  | 
